# From patent US20060246115A1, “Nutritional products for ameliorating symptoms of rheumatoid arthritis” (priority 2005, published 2006)
# Experiments:
# [1] = test system: type II collagen-immunized mice (collagen-induced arthritis); test: Experiment 1: collagen-induced arthritis (CIA) in mice, clinical assessment; type: in vivo; conditions: prednisolone 5 mg/kg i.p. daily
# Protocol: Tests are conducted under a model of rheumatoid arthritis in mice (collagen-induced arthritis or CIA) that shares some similarities with the human disease. The tests evaluate the effect of plant extracts and Oxepa®, on the severity of CIA and concentration of inflammatory mediators.
# Seven week-old DBA/1J (H-2^q) male mice (n=105) are purchased from Harlan (Barcelona, Spain) and housed in plastic cages (5 animals each) with free access to food and water.
# The procedure followed for the animal immunization is carried out by injecting 100 μl of bovine collagen II emulsion (type II collagen in complete Freund's adjuvant) intradermically in the base of the tail. Collagen is supplied by Chondrex (MDbiosciences, Switzerland) and the emulsion is prepared as follows: collagen is dissolved in 0.05M acetic acid (2 mg/ml) overnight at 4° C. with constant, but gentle stirring and emulsified with Freund's adjuvant (1:1). The Freund's adjuvant is added drop by drop while mixing in a high-speed homogenisator (ultraturrax) at 27,000 rpm. […]
# Mice are assessed daily for clinical symptoms of inflammation, and their weights are measured. […]
# For the statistical analysis, outliers are removed if they differed from the mean more than three standard deviations. Homogeneity of variances is analysed by Levene's test. […] The classification of arthritic index into categories is analysed by Chi-squared.
# [2] = test system: antibodies against type II collagen (IgG2a); test: Experiment 1: anti-CII IgG2a ELISA in serum and joint homogenates; type: in vivo, mice
# Protocol: Blood samples are taken from the retroorbital sinus under light anesthesia and the animals are immediately sacrificed by cervical dislocation. Fore and hind limbs are dissected and frozen at −80° C. Blood samples are allowed to cloth for 1 hour at room temperature and the serum is separated from blood cells by centrifugation at 6,500 g for 10 min.
# (§1) The following parameters are measured in joint homogenates: antibodies against type II collagen (IgG2a); proinflammatory cytokines: IL-1β and IL-6; counter-regulatory cytokines: IL-10; and Matrix metalloproteinases: MMP-9. Antibodies against type II collagen (IgG2a) are also measured in serum.
# Specific anti-CII—IgG2a in joints and serum of mice is determined by ELISA. Briefly, 96-well microtiter plates are coated overnight with CII at 4° C., washed with 0.05% Tween-PBS, blocked with 1% bovine serum albumin-PBS for 2 h at room temperature and then washed again. Samples are diluted with PBS before assay: 1:16000 for serum and 1:50 for homogenized joints. Fifty (50) μL of standards (type II collagen Ab-2, clone 2B1.5, NeoMarkers) from 0 to 500 ng/ml and samples are added to each well in duplicate, and incubated 2 h at 37° C. […] Finally the absorbance is measured in a microplate reader at 405 nm.
# [3] = test system: IL-1β; test: Experiment 1: IL-1β ELISA in joint homogenates; type: in vivo, mice
# Protocol: as §1
# Cytokines and MMP-9 in homogenized joints are measured by ELISA using commercial kits from BIOTRAK (Amersham Pharmacia Biotech) following the supplier instructions and using joint homogenates without any further dilution.
# [4] = test system: IL-6; test: Experiment 1: IL-6 ELISA in joint homogenates; type: in vivo, mice
# Protocol: (§2) The following parameters are measured in joint homogenates: antibodies against type II collagen (IgG2a); proinflammatory cytokines: IL-1β and IL-6; counter-regulatory cytokines: IL-10; and Matrix metalloproteinases: MMP-9. Antibodies against type II collagen (IgG2a) are also measured in serum. Cytokines and MMP-9 in homogenized joints are measured by ELISA using commercial kits from BIOTRAK (Amersham Pharmacia Biotech) following the supplier instructions and using joint homogenates without any further dilution.
# [5] = test system: MMP-9; test: Experiment 1: MMP-9 ELISA in joint homogenates; type: in vivo, mice
# Protocol: as §2
# [6] = test system: type II collagen-immunized mice (collagen-induced arthritis); test: Experiment 3: CIA in mice, arthritis index, onset and incidence; type: in vivo; conditions: prednisolone i.p. daily
# [7] = test system: histological structure of cartilage and bone of arthritic joints; test: Experiment 3: histological scoring of joints of CIA mice (H&E); type: in vivo
# Text: Experiment 1 is repeated and the test animals evaluated for various histological changes associated with each control or treatment group. The purpose of this experiment is to show the effect of Boswellia serrata and Phlebodium decumanum extracts and Oxepa® on the histological structure of cartilage and bone in the same experimental model as described above. After again completing the above-described model, the mice are sacrificed 10 days after the arthritis onset by cervical dislocation under light anesthesia. Fore and hind limbs are dissected and the skin removed. Each is then immersed in 4% buffered formaldehyde for 2-3 days. Afterwards, each is treated with decalcificant solution for 2 hours and treated again for 60-90 minutes more. The samples are dehydrated with alcohol solutions of increasing concentrations, embedded in paraffin, cut into 4 μm slices and stain with hematoxilin and eosin (H&E). The following joints are thereafter studied: elbow, radio-cubito-carpo (wrist), carpo-metacarpo and metacarpo-phalange in fore limbs, and knee, tibio-tarso (ankle), tarso-metatarso, metatarso-phalange in hind limbs. Typical alterations of arthritic joints are considered, such as synovial inflammation, pannus formation, cartilage damage and bone destruction, and are scored on a nominal scale from 0 to 3. The scale is defined for each parameter as follows: Synovial inflammation: 0=Absence: normal synovial-periarticular tissue; 1=mild: infiltration of inflammatory cells in the periarticular tissue; 2=moderated: cell infiltration and moderated edema; 3=severe: marked cell infiltration and edema. Pannus formation: None (0), mild (1), moderate (2) or severe (3) proliferation of synovial tissue at the synovium-cartilage junction. Cartilage damage: 0=Absence: normal cartilage; 1=mild: damage of Zone I (external) with slight loss of chondrocytes and/or collagen disruption; 2=moderated: damage of Zone II (internal) with moderate loss of chondrocytes and/or collagen disruption: 3=severe: severe damage of all Zones with multifocal losses of chondrocytes and/or collagen disruption. Subchondral bone destruction: 0=Absence: normal bone; 1=mild: some areas of cortical degradation, few osteoclasts; 2=moderated: clear bone degradation with moderate medular damage, more osteoclasts; 3=severe: intense cortical and medular bone destruction, numerous osteoclasts. The scores of all joints are summed to obtain a general score for each histological parameter and animal. The histopathologist is not aware of the study groups during the evaluation of the samples. Homogeneity of variances are tested by the Bartelett's test. If homogeneity of variances is met, data are analysed by one-way ANOVA. If variances are not homogeneous, non-parametric procedures are used. The analysis is done by the Graph Pad Prism Software version 4.
# [8] = individual mice, sum of scores (0-3) of all joints
compound,measurement,setting,value
C[C@]12C=CC(=O)C=C1CC[C@@H]1[C@@H]2[C@@H](O)C[C@@]2(C)[C@H]1CC[C@]2(O)C(=O)CO [prednisolone],development of arthritis,[1],do not develop arthritis
same,IgG2a levels in joint homogenates versus control,[2]; joint homogenates,significantly lower
same,IgG2a levels in serum versus control,[2]; serum,significantly lower
same,content of IL-1β in joint homogenates versus control,[3],lower
same,content of IL-6 in joint homogenates versus control,[4],lower
same,content of MMP-9 in joint homogenates versus control,[5],lower
same,development of arthritis,[6],do not develop arthritis
same,Bone score,[7]; [8],0
same,Cartilage score,[7]; [8],0
same,Inflammation score,[7]; [8],0
same,Pannus score,[7]; [8],0
same,"joint appearance, histological slide","[7]; knee, left hind limb, H&E, FIG. 9",normal joint
